Legend:
[1] = tested on: mouse-derived macrophage cell line (Raw264.7); assay: Anti-inflammatory effect against LPS in macrophage cell line, cytokine mRNA by RT-PCR; format: cell-based; settings: treated at 5 ug/ml; LPS 0.1 µg/ml, 4 hours
Description: Specifically, Raw264.7 was seeded into a […] at a density of 0.8 X 10^6 cells/well and cultured overnight. Then, the cells were pre-treated with inotodiol and the inotodiol/CD inclusion complex each at different concentrations for 2 hours. The cells were treated with lipopolysaccharide (LPS) at a concentration of 0.1 µg/ml and cultured for 4 hours to induce inflammation, after which RNA was extracted. Then, the mRNA expression of IL-6, IL-1β, and TNF-α was confirmed by a reverse transcription polymerase chain reaction (RT-PCR) method, and the results are shown in FIG. 6.

[2] = Stability in solution (visual observation of precipitation with auxiliary agent); format: physicochemical; settings: precipitation observed visually after 24 hours at room temperature
Description: Specifically, unenclosed inotodiol or the inotodiol/CD inclusion complex was mixed with a prepared auxiliary agent. The auxiliary agent was prepared at a concentration of 100 to 15,000 ppm based on the weight of inotodiol, and then treated in a sonic bath at 50 °C for 30 minutes. Afterwards, the stability was determined by visually observing whether precipitation occurred after leaving the mixture at room temperature for 24 hours.

## CC(C)=CC[C@@H](O)[C@@H](C)[C@H]1CC[C@@]2(C)C3=C(CC[C@]12C)[C@@]1(C)CC[C@H](O)C(C)(C)[C@@H]1CC3 [inotodiol, (3S,5R,10S,13R,14R,17R)-17-[(2S,3R)-3-hydroxy-6-methylhept-5-en-2-yl]-4,4,10,13,14-pentamethyl-2,3,5,6,7,11,12,15,16,17-decahydro-1H-cyclopenta[a]phenanthren-3-ol]
[1]
  mRNA expression level of IL-6: significantly reduced
  mRNA expression level of TNF-α: significantly reduced
[2]; Kolliphor (5 %)
  ppm of inotodiol in solution: 500 < ppm
[2]; Tween 80 (1 %)
  ppm of inotodiol in solution: 100 < ppm
